# Legend:
# Glucocorticoid receptor = biological target: T1, Glucocorticoid receptor (Homo sapiens, UniProt P04150); parameters: species or system Blood
# T1 sequence (P04150 whole entry): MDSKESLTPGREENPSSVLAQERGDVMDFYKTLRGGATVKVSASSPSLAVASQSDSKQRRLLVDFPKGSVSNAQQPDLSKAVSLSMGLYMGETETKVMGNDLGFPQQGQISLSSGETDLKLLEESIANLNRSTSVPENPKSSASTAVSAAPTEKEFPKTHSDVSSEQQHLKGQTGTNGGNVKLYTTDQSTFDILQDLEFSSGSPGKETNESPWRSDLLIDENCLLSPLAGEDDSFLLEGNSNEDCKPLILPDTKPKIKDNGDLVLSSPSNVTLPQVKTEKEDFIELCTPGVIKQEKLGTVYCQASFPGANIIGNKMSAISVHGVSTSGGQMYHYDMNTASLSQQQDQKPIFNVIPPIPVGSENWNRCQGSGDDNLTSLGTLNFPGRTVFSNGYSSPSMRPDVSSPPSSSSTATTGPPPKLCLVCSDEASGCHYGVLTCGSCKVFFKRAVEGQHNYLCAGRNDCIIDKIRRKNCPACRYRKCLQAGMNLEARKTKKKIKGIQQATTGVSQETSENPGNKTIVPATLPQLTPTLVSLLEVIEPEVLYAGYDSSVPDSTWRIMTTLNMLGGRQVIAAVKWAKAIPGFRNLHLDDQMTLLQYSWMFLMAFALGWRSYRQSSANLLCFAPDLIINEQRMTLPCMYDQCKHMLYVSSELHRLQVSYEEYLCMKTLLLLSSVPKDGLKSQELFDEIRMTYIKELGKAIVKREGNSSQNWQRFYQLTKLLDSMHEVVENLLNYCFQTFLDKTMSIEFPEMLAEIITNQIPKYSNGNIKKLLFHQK
# Progesterone receptor = biological target: T2, Progesterone receptor (Homo sapiens, UniProt P06401); experiment: Binding affinity to progesterone receptor (unknown origin) by fluorescence polarization assay
# T2 sequence (P06401 whole entry): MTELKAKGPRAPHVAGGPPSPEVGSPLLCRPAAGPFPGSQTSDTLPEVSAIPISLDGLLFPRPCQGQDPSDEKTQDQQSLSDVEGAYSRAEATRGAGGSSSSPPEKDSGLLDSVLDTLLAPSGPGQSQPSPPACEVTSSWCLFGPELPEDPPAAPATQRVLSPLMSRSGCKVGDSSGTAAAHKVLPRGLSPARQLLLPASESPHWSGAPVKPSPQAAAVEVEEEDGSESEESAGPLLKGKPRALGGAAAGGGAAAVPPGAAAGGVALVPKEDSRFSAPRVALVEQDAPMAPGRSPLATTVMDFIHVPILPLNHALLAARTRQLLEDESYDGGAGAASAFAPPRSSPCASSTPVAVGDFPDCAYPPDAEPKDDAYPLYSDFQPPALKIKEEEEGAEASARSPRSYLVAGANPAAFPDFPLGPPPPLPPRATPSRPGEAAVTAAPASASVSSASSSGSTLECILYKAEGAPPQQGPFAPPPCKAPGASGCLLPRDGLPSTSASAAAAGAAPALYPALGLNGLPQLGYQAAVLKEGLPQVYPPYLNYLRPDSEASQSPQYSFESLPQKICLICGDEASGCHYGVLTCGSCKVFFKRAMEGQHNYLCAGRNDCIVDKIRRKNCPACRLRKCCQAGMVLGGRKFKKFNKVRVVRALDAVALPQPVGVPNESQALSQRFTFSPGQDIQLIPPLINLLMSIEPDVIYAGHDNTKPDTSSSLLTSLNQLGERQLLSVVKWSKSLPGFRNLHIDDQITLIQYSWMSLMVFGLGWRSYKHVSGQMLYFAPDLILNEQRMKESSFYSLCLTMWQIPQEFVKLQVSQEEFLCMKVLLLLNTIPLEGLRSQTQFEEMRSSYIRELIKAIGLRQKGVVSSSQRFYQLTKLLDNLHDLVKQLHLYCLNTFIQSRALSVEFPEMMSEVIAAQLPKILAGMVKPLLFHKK
# Cytochrome P450 2C8 = biological target: T3, Cytochrome P450 2C8 (Homo sapiens, UniProt P10632); experiment: Inhibition of CYP2C8 (unknown origin); type: ADME
# T3 sequence (P10632 whole entry): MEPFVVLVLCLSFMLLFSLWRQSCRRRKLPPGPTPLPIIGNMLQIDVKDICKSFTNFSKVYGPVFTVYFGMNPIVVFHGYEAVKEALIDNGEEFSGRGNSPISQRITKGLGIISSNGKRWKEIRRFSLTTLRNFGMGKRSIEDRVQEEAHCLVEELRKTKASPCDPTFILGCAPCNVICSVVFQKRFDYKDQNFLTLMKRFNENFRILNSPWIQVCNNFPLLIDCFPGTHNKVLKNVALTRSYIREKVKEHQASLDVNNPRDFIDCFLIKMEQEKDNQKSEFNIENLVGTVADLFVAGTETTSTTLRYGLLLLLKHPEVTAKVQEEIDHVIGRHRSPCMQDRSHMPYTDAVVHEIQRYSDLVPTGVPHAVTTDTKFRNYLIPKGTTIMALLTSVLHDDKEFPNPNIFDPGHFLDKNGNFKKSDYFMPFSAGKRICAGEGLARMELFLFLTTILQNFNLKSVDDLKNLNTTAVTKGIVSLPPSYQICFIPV
Compound,EC50 (Glucocorticoid receptor) [nM],Ki (Progesterone receptor) [nM],IC50 (Cytochrome P450 2C8) [nM]
CC(C)(C(=O)NC(N)=O)[C@@H]1c2ccc(-c3ccc(C(=O)N4CCOCC4)cc3)nc2Oc2c(F)cccc21,20.3,52.8,8900
CC(C)(C(=O)Nc1nncs1)[C@@H]1c2ccc(-c3ccc(C(=O)N4CCOCC4)cc3)nc2Oc2c(F)cccc21,21.5,44.9,3700
